Measured values as given in ChEMBL document CHEMBL5518230, “Identification of a Novel Selective CDK9 Inhibitor for the Treatment of CRC: Design, Synthesis, and Biological Activity Evaluation” (J Med Chem, 2024).
Activity calls are given as the source filed them. No cut-off for these calls is given here.

Assays:
HT-29 = assay: Growth inhibition of human HT-29 cells incubated for 48 hrs by CCK-8 assay; type: functional
CDK9/cyclin T1 = CDK9/cyclin T1 (Homo sapiens, UniProt P50750); assay: Inhibition of CDK9/Cyclin T1 (unknown origin) using PDKtide substrate incubated for 60 mins by ADP-Glo kinase assay; type: protein-complex assay
Sequence of CDK9/cyclin T1 (O60563 whole entry): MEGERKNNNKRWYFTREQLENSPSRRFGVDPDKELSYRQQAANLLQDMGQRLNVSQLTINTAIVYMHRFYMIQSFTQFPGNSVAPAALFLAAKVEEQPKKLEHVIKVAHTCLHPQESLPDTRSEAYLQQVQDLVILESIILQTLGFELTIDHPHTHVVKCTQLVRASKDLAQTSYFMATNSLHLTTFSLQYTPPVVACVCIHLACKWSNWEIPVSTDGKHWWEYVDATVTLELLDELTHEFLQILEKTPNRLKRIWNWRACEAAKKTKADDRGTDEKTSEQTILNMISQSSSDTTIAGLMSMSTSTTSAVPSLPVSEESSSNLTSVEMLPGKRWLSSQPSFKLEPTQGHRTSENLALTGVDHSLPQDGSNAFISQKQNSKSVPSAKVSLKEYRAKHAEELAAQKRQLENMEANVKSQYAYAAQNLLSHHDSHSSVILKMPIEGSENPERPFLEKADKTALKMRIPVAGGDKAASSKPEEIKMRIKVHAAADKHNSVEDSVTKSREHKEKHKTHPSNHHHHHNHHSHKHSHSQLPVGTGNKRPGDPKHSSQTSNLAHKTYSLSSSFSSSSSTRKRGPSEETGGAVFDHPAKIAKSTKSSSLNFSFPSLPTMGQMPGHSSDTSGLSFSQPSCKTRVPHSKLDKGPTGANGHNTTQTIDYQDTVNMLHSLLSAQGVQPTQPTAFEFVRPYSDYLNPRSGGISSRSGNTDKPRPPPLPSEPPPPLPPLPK
Sequence of CDK9/cyclin T1 (P50750 whole entry): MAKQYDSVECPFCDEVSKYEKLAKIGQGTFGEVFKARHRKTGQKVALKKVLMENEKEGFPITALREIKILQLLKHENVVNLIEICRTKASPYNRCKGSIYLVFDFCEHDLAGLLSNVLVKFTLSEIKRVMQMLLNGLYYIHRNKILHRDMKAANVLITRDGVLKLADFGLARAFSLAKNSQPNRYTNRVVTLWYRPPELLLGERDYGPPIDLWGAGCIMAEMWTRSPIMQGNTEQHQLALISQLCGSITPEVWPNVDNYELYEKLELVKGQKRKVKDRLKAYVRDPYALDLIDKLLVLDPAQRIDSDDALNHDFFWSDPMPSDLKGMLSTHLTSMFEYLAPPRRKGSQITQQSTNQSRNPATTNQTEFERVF

HCT-116 [1] = assay: Growth inhibition of human HCT-116 cells incubated for 48 hrs by CCK-8 assay; type: functional
[2] = biological target: CDK9/cyclin T1 (Homo sapiens) (UniProt O60563+P50750); assay: Inhibition of CDK9/Cyclin T1 (unknown origin) using PDKtide substrate at 500 nM incubated for 60 mins by ADP-Glo kinase assay relative to control; type: protein-complex assay
[3] = biological target: Cyclin-dependent kinase 2 (Homo sapiens, UniProt P24941); assay: Inhibition of CDK2 (unknown origin)
[4] = biological target: Cyclin-dependent kinase 1 (Homo sapiens, UniProt P06493); assay: Inhibition of CDK1 (unknown origin)
Sequence of Cyclin-dependent kinase 1 (P06493 whole entry): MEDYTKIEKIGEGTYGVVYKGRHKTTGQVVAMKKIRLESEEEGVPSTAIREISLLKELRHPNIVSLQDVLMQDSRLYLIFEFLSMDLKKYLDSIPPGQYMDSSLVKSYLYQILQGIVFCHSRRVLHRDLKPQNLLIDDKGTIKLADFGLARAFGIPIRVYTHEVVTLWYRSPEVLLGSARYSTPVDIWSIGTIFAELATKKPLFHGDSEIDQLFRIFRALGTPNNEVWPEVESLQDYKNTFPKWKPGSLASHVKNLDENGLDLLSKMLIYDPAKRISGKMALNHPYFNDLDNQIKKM

CYP2C19 = CYP2C19 (Homo sapiens, UniProt P33261); assay: Inhibition of CYP2C19 in human liver microsomes using benzylnirvanol as […] at 10 uM preincubated for 10 mins followed by NADPH addition measured after 15 mins by LC-MS/MS analysis relative to control; type: ADME, Microsome; details: probe benzylnirvanol, time 25 min
CYP2C9 = CYP2C9 (Homo sapiens, UniProt P11712); assay: Inhibition of CYP2C9 in human liver microsomes using sulfaphenazole as […] at 10 uM preincubated for 10 mins followed by NADPH addition measured after 15 mins by LC-MS/MS analysis relative to control; type: ADME, Microsome; details: probe sulfaphenazole, time 25 min
Sequence of CYP2C9 (P11712 whole entry): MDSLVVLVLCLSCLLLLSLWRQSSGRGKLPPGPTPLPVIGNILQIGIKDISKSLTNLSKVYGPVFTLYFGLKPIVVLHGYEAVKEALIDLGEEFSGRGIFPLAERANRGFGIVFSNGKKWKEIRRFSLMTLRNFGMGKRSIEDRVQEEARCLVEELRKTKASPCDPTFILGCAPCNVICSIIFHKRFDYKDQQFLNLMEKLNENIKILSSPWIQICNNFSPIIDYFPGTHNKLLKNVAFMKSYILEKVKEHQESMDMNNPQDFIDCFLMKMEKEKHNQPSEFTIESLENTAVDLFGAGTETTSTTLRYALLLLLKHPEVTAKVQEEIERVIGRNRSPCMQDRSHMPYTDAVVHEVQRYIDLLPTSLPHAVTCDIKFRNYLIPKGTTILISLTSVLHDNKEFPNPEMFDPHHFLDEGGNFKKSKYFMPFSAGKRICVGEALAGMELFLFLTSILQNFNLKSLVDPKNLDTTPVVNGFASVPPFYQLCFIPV

[5] = Intrinsic microsomal clearance in human liver microsomes at 100 uM measured upto 60 mins in presence of NADPH by LC-MS/MS analysis; type: ADME, Microsome; details: read-out: CLH
[6] = biological target: Cyclin-dependent kinase 7 (Homo sapiens, UniProt P50613); assay: Inhibition of CDK7 (unknown origin)
Sequence of Cyclin-dependent kinase 7 (P50613 whole entry): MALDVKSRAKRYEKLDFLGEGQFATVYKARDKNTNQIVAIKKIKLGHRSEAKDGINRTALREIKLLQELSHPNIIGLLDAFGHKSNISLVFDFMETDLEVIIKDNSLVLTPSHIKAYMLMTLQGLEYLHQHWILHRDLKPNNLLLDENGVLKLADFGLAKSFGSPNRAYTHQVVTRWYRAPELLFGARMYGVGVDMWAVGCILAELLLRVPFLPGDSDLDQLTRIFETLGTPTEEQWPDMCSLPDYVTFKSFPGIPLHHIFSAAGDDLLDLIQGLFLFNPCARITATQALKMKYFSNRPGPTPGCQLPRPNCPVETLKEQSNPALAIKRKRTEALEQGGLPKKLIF

[7] = biological target: Cyclin-dependent kinase 4 (Homo sapiens, UniProt P11802); assay: Inhibition of CDK4 (unknown origin)
Sequence of Cyclin-dependent kinase 4 (P11802 whole entry): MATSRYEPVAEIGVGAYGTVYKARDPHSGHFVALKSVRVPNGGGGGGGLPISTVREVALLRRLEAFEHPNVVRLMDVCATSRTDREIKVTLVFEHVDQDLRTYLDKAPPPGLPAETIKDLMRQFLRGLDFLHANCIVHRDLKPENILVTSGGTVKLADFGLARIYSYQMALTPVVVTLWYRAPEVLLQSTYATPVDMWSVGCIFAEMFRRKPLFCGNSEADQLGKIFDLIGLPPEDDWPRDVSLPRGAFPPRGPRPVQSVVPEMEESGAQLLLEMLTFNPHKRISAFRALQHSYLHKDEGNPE

[8] = biological target: Cyclin-dependent kinase 9 (Homo sapiens, UniProt P50750); assay: Inhibition of CDK9 (unknown origin)
Sequence of Cyclin-dependent kinase 9 (P50750 whole entry): as the sequence (P50750 whole entry) above

[9] = biological target: Cyclin-dependent kinase 5 (Homo sapiens, UniProt Q00535); assay: Inhibition of CDK5 (unknown origin)
Sequence of Cyclin-dependent kinase 5 (Q00535 whole entry): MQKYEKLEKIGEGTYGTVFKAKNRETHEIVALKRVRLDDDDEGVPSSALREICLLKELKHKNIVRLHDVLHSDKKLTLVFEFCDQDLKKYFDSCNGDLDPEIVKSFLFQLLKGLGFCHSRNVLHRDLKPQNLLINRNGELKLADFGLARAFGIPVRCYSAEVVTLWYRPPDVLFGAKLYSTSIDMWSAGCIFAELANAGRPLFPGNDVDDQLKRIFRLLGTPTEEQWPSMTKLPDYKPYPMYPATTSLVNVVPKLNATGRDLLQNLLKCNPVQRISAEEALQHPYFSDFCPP

CYP1A2 = biological target: T1, CYP1A2 (Homo sapiens, UniProt P05177); assay: Inhibition of CYP1A2 in human liver microsomes using alpha-naphthoflavone as […] at 10 uM preincubated for 10 mins followed by NADPH addition measured after 15 mins by LC-MS/MS analysis relative to control; type: ADME, Microsome; details: time 25 min
T1 sequence (P05177 whole entry): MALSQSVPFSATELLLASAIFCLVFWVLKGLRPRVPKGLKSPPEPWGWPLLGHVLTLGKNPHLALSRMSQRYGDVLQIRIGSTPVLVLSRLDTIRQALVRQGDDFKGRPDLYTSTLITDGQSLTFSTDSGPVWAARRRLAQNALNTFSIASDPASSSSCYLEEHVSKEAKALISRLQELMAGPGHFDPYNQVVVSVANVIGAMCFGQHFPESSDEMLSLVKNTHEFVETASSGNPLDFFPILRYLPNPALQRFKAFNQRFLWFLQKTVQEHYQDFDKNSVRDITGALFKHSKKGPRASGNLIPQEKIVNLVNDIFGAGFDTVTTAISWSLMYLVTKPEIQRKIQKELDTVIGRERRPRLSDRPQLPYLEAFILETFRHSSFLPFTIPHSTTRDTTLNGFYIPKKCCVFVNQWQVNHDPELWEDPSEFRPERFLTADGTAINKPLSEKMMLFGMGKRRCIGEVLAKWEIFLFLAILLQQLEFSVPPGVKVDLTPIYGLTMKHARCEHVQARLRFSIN

CYP3A4 = CYP3A4 (Homo sapiens, UniProt P08684); assay: Inhibition of CYP3A4 in human liver microsomes using ketoconazole as […] at 10 uM preincubated for 10 mins followed by NADPH addition measured after 15 mins by LC-MS/MS analysis relative to control; type: ADME, Microsome; details: probe ketoconazole, time 25 min
Sequence of CYP3A4 (P08684 whole entry): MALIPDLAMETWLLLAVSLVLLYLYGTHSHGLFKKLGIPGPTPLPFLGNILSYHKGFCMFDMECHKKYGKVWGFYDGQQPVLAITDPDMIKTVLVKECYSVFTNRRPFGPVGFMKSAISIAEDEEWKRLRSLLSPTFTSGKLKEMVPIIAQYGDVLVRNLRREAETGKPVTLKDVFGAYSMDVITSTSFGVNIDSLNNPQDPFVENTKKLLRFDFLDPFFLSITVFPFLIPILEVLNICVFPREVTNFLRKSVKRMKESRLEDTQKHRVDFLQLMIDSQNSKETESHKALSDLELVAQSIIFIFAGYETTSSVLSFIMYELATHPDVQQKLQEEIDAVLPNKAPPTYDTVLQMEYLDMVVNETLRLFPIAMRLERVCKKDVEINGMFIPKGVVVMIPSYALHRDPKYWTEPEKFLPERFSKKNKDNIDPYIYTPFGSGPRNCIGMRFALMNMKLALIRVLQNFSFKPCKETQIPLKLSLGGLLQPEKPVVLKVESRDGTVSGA

[10] = biological target: Cyclin-dependent kinase 8 (Homo sapiens, UniProt P49336); assay: Inhibition of CDK8 (unknown origin)
Sequence of Cyclin-dependent kinase 8 (P49336 whole entry): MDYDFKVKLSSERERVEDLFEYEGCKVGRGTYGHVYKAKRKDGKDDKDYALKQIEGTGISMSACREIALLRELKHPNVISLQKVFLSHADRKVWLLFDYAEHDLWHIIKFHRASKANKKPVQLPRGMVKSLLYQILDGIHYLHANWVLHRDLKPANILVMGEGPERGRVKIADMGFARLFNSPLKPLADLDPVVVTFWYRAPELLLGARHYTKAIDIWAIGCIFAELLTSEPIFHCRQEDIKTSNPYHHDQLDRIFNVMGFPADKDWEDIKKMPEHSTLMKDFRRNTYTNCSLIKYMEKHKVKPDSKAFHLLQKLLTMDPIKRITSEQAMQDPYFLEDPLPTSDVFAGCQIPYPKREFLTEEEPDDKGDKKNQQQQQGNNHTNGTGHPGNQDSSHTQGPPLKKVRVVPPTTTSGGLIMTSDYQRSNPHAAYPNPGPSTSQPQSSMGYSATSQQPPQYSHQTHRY

[11] = Intrinsic clearance in human liver microsomes at 100 uM measured upto 60 mins in presence of NADPH by LC-MS/MS analysis; type: ADME, Microsome; details: 1 h
CYP2D6 = CYP2D6 (Homo sapiens, UniProt P10635); assay: Inhibition of CYP2D6 in human liver microsomes using quinidine as […] at 10 uM preincubated for 10 mins followed by NADPH addition measured after 15 mins by LC-MS/MS analysis relative to control; type: ADME, Microsome; details: time 25 min
Sequence of CYP2D6 (P10635 whole entry): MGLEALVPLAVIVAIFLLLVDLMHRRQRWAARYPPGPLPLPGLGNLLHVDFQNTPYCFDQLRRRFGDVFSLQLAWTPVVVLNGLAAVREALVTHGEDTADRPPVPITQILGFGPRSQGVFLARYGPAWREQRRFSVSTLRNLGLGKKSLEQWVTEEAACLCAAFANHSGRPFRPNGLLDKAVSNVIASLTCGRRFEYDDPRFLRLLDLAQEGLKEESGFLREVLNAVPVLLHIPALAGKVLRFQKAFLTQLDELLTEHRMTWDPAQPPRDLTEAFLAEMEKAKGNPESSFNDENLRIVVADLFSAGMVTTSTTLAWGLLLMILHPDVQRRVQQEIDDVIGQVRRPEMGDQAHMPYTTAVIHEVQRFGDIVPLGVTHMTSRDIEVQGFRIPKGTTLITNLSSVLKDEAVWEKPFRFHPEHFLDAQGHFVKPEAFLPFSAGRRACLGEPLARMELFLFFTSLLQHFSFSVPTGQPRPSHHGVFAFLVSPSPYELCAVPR

[12] = Half life in human liver microsomes at 100 uM measured upto 60 mins in presence of NADPH by LC-MS/MS analysis; type: ADME, Microsome
[13] = biological target: Cyclin-dependent kinase 12 (Homo sapiens, UniProt Q9NYV4); assay: Inhibition of CDK12 (unknown origin)
[14] = biological target: Cyclin-dependent kinase 6 (Homo sapiens, UniProt Q00534); assay: Inhibition of CDK6 (unknown origin)
Sequence of Cyclin-dependent kinase 6 (Q00534 whole entry): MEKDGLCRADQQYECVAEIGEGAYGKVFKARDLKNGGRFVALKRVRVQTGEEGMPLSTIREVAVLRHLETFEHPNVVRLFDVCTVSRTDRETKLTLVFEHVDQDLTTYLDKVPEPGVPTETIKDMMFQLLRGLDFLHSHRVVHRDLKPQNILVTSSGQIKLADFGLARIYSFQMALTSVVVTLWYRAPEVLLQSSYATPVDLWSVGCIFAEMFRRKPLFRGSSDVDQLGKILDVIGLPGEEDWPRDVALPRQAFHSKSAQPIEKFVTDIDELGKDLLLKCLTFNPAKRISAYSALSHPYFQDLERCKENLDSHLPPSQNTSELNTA

[15] = Half life in human plasma measured upto 120 mins by LC-MS/MS analysis; type: ADME, cell-free
[16] = Stability in human liver microsomes assessed as compound remaining at 100 uM measured upto 60 mins in presence of NADPH by LC-MS/MS analysis; type: ADME, Microsome; details: read-out: Stability
HCT-116 [17] = assay: Inhibition of colony formation in human HCT-116 cells assessed as reduction in colony number incubated for 14 days by crystal violet staining assay; type: functional, cell-based; details: time 14.0 day
HCT-116 [18] = assay: Antitumor activity against human HCT-116 cells xenografted in BALB/c mouse assessed as tumor growth inhibition at 50 mg/kg,po administrated once daily for 3 weeks; type: functional, organism-based

SMILES	GI50 (HT-29) [nM]	IC50 (CDK9/cyclin T1) [nM]	GI50 (HCT-116 [1]) [nM]	inhibition [2] [%]	other results
CC(C)n1nnc2ccc(-c3ccnc(Nc4ccc(C(=O)N5CCCN(C)CC5)cn4)c3)cc21	> 2000	3.05	280		
O=C(c1ccc(Nc2cc(-c3ccc4nnn(C5CCCC5)c4c3)ccn2)nc1)N1CCOCC1		9.92		99.7	
CC(C)n1nnc2ccc(-c3ccnc(Nc4ccc(C(=O)N5CCNC(=O)C5)cn4)c3)cc21	300	2.3	90		
COc1cc(C(=O)N2CCOCC2)ccc1Nc1cc(-c2ccc3nnn(C4CCCC4)c3c2)ccn1				23.5	
CC(C)(C)n1nnc2ccc(-c3ccnc(Nc4ccc(C(=O)N5CCOCC5)cc4)c3)cc21				73.5	
COc1cc(C(=O)N2CCOCC2)ccc1Nc1cc(-c2ccc3nnn(C(C)C)c3c2)ccn1				41.7	
O=C(c1ccc(Nc2cc(-c3ccc4nnn(C5CCCCC5)c4c3)ccn2)nc1)N1CCOCC1		13.2		98	
COc1cc(C(=O)N2CCOCC2)ccc1Nc1cc(-c2ccc3nnn(C(C)(C)C)c3c2)ccn1				28.1	
CCN1CCN(C(=O)c2ccnc(Nc3cc(-c4ccc5nnn(C(C)C)c5c4)ccn3)c2)CC1	510	3.92	60		
CC(C)n1nnc2ccc(-c3ccnc(Nc4cc(C(=O)N5CCOCC5)ccn4)c3)cc21	650	3.06	70		
CC(C)(C)n1nnc2ccc(-c3ccnc(Nc4ccc(C(=O)N5CCOCC5)cc4C(F)(F)F)c3)cc21				6.51	
O=C(c1ccc(Nc2cc(-c3ccc4nnn(C5CCCC5)c4c3)ccn2)cc1)N1CCOCC1				81.2	
CC(C)n1nnc2ccc(-c3ccnc(Nc4cc(C(=O)N5CCCC5)ccn4)c3)cc21	420	1.32	80		IC50 [3]: 134 nM; IC50 [4]: 161 nM; inhibition at 0.25 h, 10 µM (CYP2C19): 56.1%; inhibition at 0.25 h, 10 µM (CYP2C9): 29.6%; microsomal CLint at 100 µM [5]: 79.8 µL/min/mg; IC50 [6]: > 500 nM; IC50 [7]: 35.6 nM; IC50 [8]: 1.3 nM; IC50 [9]: > 500 nM; inhibition at 0.25 h, 10 µM (CYP1A2): 12.2%; inhibition at 0.25 h, 10 µM (CYP3A4): 0%; IC50 [10]: > 500 nM; CLH [11]: 71.8 µL/min/mg; inhibition at 0.25 h, 10 µM (CYP2D6): 0%; half-life at 100 µM [12]: 17.4 min; IC50 [13]: > 500 nM; IC50 [14]: 11.5 nM; half-life [15]: > 289 min; remaining at 1 h, 100 µM [16]: 9%
CC(C)n1nnc2ccc(-c3ccnc(Nc4cc(C(=O)N5CCN(C)CC5)ccn4)c3)cc21	770	3.44	80		
CC(C)(C)n1nnc2ccc(-c3ccnc(Nc4ccc(C(=O)N5CCOCC5)cn4)c3)cc21		9.73		98.9	
COc1cc(C(=O)N2CCOCC2)ccc1Nc1cc(-c2ccc3nnn(C4CCCCC4)c3c2)ccn1				16.3	

SMILES	GI50 (HT-29) [nM]	IC50 (CDK9/cyclin T1) [nM]	GI50 (HCT-116 [1]) [nM]	inhibition [2] [%]	other results
CC(C)n1nnc2ccc(-c3ccnc(Nc4ccc(C(=O)N5CCOCC5)cc4)c3)cc21				83	
CC(C)n1nnc2ccc(-c3ccnc(Nc4ccc(C(=O)N5CCOCC5)cn4)c3)cc21	220	9.43	350	101	
O=C(c1ccc(Nc2cc(-c3ccc4nnn(C5CCCCC5)c4c3)ccn2)c(F)c1)N1CCOCC1				41.1	
CC(C)(C)n1nnc2ccc(-c3ccnc(Nc4ccc(C(=O)N5CCOCC5)cc4F)c3)cc21				50.3	
CC(C)n1nnc2ccc(-c3ccnc(Nc4cc(C(=O)N5CCNC(=O)C5)ccn4)c3)cc21	> 2000	1.94	520		
O=C(c1ccc(Nc2cc(-c3ccc4nnn(C5CCCC5)c4c3)ccn2)c(F)c1)N1CCOCC1				12.9	
CC(C)n1nnc2ccc(-c3ccnc(Nc4ccc(C(=O)N5CCOCC5)cc4C(F)(F)F)c3)cc21				11.4	
CC(C)N1CCN(C(=O)c2ccnc(Nc3cc(-c4ccc5nnn(C(C)C)c5c4)ccn3)c2)CC1	410	3.37	40		IC50 [3]: 167 nM; IC50 [4]: 125 nM; inhibition at 0.25 h, 10 µM (CYP2C19): 48.3%; inhibition at 0.25 h, 10 µM (CYP2C9): 56.3%; microsomal CLint at 100 µM [5]: 177 µL/min/mg; IC50 [6]: > 500 nM; IC50 [7]: > 500 nM; IC50 [8]: 3.3 nM; IC50 [9]: > 500 nM; inhibition at 0.25 h, 10 µM (CYP1A2): 25.1%; inhibition at 0.25 h, 10 µM (CYP3A4): 15.7%; IC50 [10]: > 500 nM; CLH [11]: 158.9 µL/min/mg; inhibition at 0.25 h, 10 µM (CYP2D6): 7.1%; half-life at 100 µM [12]: 7.8 min; IC50 [13]: > 500 nM; IC50 [14]: 33.1 nM; half-life [15]: > 289 min; remaining at 1 h, 100 µM [16]: 0.5%
O=C(c1ccc(Nc2cc(-c3ccc4nnn(C5CCCC5)c4c3)ccn2)c(C(F)(F)F)c1)N1CCOCC1				47.1	
CC(C)N1CCN(C(=O)c2ccc(Nc3cc(-c4ccc5nnn(C(C)C)c5c4)ccn3)nc2)CC1	80	4.08	330		
CC(C)n1nnc2ccc(-c3ccnc(Nc4ccc(C(=O)N5CCOCC5)cc4F)c3)cc21				65.3	
O=C(c1ccc(Nc2cc(-c3ccc4nnn(C5CCCCC5)c4c3)ccn2)c(C(F)(F)F)c1)N1CCOCC1				0.49	
CC(C)n1nnc2ccc(-c3ccnc(Nc4ccc(C(=O)N5CCN(C)CC5)cn4)c3)cc21	230	4.39	250		
CC(C)n1nnc2ccc(-c3ccnc(Nc4ccc(C(=O)N5CCCC5)cn4)c3)cc21	350	6.62	310		
O=C(c1ccc(Nc2cc(-c3ccc4nnn(C5CCCCC5)c4c3)ccn2)cc1)N1CCOCC1				76	
Cc1ncc(-c2ccnc(Nc3ccc(S(C)(=O)=O)cc3)n2)n1C(C)C [AZD-5438]	960		450		inhibition (HCT-116 [17]): Dose-Dependent Effect; Activity (HCT-116 [18]): Active
